According to patent publication US20250368678A1, “19-NOR-C3,3-DISUBSTITUTED C21-AZACYCLO-S[…] AND METHOD FOR USING SAME” (SHANDONG LUYE PHARMACEUTICAL CO., LTD., priority 2022, published 2025):

Experiments:
[1] = In vitro liver microsomal stability assay, rat; format: in vitro ADME; conditions: for Remaining amount % at 60 min: Rat liver microsomes 0.5 mg/mL, NADPH; for microsomal CLint at 1 µM: read-out: CLint(mic)
Description: (§1) 1) Preparation of working solutions of test samples: The test samples were diluted with acetonitrile to 100 M.
(§2) 2) Preparation of a working solution of liver microsomes: liver microsomes were diluted with 100 mM phosphate-buffered saline to 0.56 mg/mL.
(§3) 3) Preparation of a working solution of reduced nicotinamide adenine dinucleotide (NADPH): A proper amount of NADPH was weighed out and diluted with phosphate-buffered saline to 20 mM, and an equal volume of a 60 mM MgCl2 solution was added.
(§4) 4) Preparation of a stop solution: Tolbutamide was diluted with acetonitrile to 20 ng/mL, serving as a stop solution containing an internal standard.
(§5) 1) Incubation anti-adsorption EP tubes were prepared and labeled with species, test/control sample, time points (0, 5, 10, 20, 30, 60 min, Blank60, and NCF60), etc.
(§6) 2) 2 L of test or control sample working solution, diluted with acetonitrile to 100 M, and 178 L of liver microsome working solution were added to each tube. For the Blank60 tube, 2 L of acetonitrile was added instead of a test sample. The tubes were pre-incubated in a 37° C. water bath for about 10 min, with each sample tested in triplicate.
(§7) 3) After the pre-incubation was complete, 20 L of NADPH working solution was added to each tube except for the 0 min and NCF60 tubes to start reactions, and 20 L of phosphate-buffered saline (containing 30 mM MgCl2) was added to the NCF60 tube. In the incubation system, the final concentrations of the test and control samples were 1 M, the final concentration of liver microsomes was 0.5 mg/mL, the final concentration of NADPH was 1 mM, and the final concentration of MgCl2 was 3 mM.
(§8) 4) For the 0 min sample, 600 L of stop solution was added before adding the NADPH working solution. After each sample was incubated for its respective time, 600 L of stop solution was added to stop the reaction.
(§9) 5) After the reaction was stopped, each sample was vortexed for 30 s and then centrifuged at 13,500 rpm for 10 min. 100 L of the supernatant was transferred to an EP tube, and 100 L Milli-Q water was added. The mixture was well mixed by vortexing and analyzed by LC-MS/MS.
(§10) 6) Testosterone and dextromethorphan were used as positive control samples under the same conditions to assess the stability and reliability of the system.
(§11) Parameters of the test samples, including their half-lives, intrinsic clearance rates in liver microsomes, and hepatic intrinsic clearance rates, were calculated based on the percentage of test sample remaining.

[2] = molecular target: T1, α1β2γ2 GABA receptors (α1β2γ2-CHO-TRex stable cell strain) (Homo sapiens, UniProt P14867+P47870); experiment: Whole-cell patch clamp, intrasynaptic functional activity (positive allosteric regulation of GABA-induced current); format: cell-based; conditions: patch clamp -60 mV, GABA at EC10-20, α1β2γ2-CHO-TRex cells
T1 construct: expressed in transfected cells
Description: (§12) The α4β3δ-HEK-FlpIn-TRex stable cell strain was cultured in DMEM+10% FBS complete culture medium, with the selective antibiotics being 10 μg/mL Blasticidin, 100 µg/mL Zeocin, 100 µg/mL Hygromycin, and 0.2 μg/mL Puromycin. The α1β2γ2-CHO-TRex stable cell strain was cultured in DMEM/F12+10% FBS complete culture medium, with the selective antibiotics being 10 μg/mL Blasticidin, 100 μg/mL Zeocin, 300 μg/mL Hygromycin, and […] Puromycin.
(§13) The day before the patch clamp experiment, cells were seeded onto 12 mm polylysine-coated coverslips and then cultured in 35 mm culture dishes, and tetracycline ([…]) was added to induce the expression of GABA receptors. The extracellular fluid had the following composition (in mM): 140 NaCl, 3 KCl, 1.5 MgCl2, 2 CaCl2, 10 HEPES, and 10 Glucose. After thorough mixing, NaOH was added to adjust the pH to 7.4, and sucrose was added to adjust the osmotic pressure to 300-320 mOsm. The fluid was stored at 4° C. The electrode internal solution had the following composition (in mM): 145 KCl, 1 MgCl2, 5 EGTA, 10 HEPES, and 5 MgATP. After thorough mixing, KOH was added to adjust the pH to 7.3, and sucrose was added to adjust the osmotic pressure to 290-300 mOsm. The solution was filtered through a […] before use.
(§14) Whole-cell patch clamp recording was mainly employed in this experiment. The membrane potential was clamped at −60 mV, and receptors were activated using GABA at an EC10-20 concentration ([…]). The test compounds were dissolved in 0.1% DMSO, and perfusion was performed for 30 s prior to GABA stimulation. Finally, the positive allosteric regulating effects of the test compounds on α1β2γ2 or α4β3δ were determined.
(§15) The experimental result for each concentration was expressed as a fold increase in the GABA-induced current caused by the compound. […] At least 5 concentrations are tested to obtain a complete EC50 curve and EC50 values. All experiments were repeated on no less than 3 cells, and data processing was completed using GraphPad prism software. The dose-response curves were fitted using the Hill equation, and the half-maximal activating concentration EC50 and Emax were finally obtained.

[3] = In vitro liver microsomal stability assay, human; format: in vitro ADME; conditions: for Remaining amount % at 60 min: Human liver microsomes 0.5 mg/mL, NADPH; for microsomal CLint at 1 µM: read-out: CLint(mic)
Description: as §1, §2, §3, §4, §5, §6, §7, §8, §9, §10, §11

[4] = molecular target: T2, α4β3δ GABA receptors (α4β3δ-HEK-FlpIn-TRex stable cell strain) (Homo sapiens, UniProt P28472+P48169); experiment: Whole-cell patch clamp, extrasynaptic functional activity (positive allosteric regulation of GABA-induced current); format: cell-based; conditions: patch clamp -60 mV, GABA at EC10-20, α4β3δ-HEK-FlpIn-TRex cells
T2 construct: expressed in transfected cells
Description: as §12, §13, §14, §15

T1 sequence (P14867 28-456): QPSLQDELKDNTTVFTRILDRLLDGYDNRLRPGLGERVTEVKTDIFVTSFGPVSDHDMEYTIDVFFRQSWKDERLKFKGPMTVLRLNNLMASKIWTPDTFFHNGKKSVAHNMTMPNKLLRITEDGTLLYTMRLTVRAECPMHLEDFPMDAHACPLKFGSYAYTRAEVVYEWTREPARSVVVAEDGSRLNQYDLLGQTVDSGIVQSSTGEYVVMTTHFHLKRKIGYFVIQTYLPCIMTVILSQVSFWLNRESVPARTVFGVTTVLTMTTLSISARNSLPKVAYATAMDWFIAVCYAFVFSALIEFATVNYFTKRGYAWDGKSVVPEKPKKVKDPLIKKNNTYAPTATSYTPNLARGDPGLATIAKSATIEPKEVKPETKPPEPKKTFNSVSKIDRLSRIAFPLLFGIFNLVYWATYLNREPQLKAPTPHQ
T1 sequence (P47870 25-512 limits assumed): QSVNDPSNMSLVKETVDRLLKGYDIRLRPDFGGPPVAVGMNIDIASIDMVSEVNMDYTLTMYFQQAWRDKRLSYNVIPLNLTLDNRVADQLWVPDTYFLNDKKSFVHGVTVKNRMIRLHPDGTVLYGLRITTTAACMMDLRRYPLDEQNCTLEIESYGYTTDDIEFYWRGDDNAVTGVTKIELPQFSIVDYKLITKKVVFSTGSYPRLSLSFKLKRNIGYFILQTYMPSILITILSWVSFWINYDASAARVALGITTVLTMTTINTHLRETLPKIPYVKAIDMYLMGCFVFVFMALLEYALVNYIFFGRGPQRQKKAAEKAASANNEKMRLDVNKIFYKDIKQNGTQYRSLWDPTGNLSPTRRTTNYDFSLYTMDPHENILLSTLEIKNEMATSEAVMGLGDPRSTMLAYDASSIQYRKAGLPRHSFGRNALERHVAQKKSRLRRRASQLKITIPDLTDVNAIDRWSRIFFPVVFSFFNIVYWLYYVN
T1 sequence (P18507 40-475 partner): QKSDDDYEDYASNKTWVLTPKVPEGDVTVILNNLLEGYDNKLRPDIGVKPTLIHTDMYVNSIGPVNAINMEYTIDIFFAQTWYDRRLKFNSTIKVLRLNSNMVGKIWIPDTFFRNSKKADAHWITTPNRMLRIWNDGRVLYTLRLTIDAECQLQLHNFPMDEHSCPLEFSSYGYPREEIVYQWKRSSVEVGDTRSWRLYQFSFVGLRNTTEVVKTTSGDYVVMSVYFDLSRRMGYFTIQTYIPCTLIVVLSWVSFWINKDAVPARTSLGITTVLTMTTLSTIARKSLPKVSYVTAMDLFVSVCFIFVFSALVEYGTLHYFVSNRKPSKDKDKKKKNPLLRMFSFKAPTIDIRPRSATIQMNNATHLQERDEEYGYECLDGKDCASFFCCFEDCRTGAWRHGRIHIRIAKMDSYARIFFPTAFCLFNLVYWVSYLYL
T2 sequence (P48169 36-554): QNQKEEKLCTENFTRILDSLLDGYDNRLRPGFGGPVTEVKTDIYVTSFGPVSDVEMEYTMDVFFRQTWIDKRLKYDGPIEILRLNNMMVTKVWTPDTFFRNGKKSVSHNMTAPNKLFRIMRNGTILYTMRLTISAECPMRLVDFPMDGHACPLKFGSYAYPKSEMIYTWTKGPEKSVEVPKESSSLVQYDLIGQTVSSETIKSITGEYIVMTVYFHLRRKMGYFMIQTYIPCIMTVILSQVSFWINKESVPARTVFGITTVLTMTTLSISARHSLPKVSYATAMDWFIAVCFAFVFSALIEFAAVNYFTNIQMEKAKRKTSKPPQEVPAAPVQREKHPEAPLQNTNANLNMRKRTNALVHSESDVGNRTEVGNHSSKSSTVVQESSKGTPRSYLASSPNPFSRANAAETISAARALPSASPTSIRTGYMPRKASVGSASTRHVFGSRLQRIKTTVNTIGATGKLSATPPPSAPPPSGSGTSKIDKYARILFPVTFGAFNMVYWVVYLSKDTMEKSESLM
T2 sequence (P28472 26-473): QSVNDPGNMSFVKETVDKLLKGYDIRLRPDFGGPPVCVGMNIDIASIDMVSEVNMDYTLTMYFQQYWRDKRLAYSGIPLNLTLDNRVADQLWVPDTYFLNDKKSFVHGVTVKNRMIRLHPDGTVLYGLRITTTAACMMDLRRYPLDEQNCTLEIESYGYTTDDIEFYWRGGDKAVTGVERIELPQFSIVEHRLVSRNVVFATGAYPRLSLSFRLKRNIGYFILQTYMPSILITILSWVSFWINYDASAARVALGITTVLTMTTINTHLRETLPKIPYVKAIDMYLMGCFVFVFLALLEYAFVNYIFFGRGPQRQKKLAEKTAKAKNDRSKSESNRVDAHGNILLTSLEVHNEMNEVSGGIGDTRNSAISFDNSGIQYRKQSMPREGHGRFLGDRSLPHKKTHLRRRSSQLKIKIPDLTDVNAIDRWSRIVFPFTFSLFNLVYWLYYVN
T2 sequence (O14764 25-452 partner): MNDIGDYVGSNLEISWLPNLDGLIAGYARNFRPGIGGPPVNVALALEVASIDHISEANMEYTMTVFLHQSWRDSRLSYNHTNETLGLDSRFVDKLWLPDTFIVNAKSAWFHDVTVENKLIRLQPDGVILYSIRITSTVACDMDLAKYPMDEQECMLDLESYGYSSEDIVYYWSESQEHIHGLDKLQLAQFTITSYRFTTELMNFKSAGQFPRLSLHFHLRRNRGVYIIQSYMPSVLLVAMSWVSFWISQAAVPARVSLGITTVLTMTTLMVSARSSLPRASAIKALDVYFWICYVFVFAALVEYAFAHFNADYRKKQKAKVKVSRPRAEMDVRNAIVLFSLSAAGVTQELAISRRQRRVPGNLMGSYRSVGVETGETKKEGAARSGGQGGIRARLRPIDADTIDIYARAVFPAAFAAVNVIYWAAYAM

Structure (SMILES) | CLint scaled at 1 µM ([1]; Rat liver microsomes) | T1/2 ([1]; Rat liver microsomes) | Remaining amount % at 60 min [1] | microsomal CLint at 1 µM ([1]; Rat liver microsomes) | Emax [2] | CLint scaled at 1 µM ([3]; Human liver microsomes) | T1/2 ([3]; Human liver microsomes) | Remaining amount % at 60 min [3] | microsomal CLint at 1 µM ([3]; Human liver microsomes) | Emax [4] | half-life at 1 µM ([1]; Rat liver microsomes) | EC50 [2] | half-life at 1 µM ([3]; Human liver microsomes) | EC50 [4]
C[C@@]1(O)CC[C@H]2[C@H](CC[C@@H]3[C@@H]2CC[C@]2(C)[C@@H](C(=O)Cn4cnn(-c5cccc(C(N)=O)c5)c4=O)CC[C@@H]32)C1 [Compound 19] | 141 mL/min/kg | 17.6 min | 9.5% | 79 µL/min/mg | 764% | 26 mL/min/kg | 28.5 min | 42.2% | 29 µL/min/mg | 386% |  |  |  | 
C[C@@]1(O)CC[C@H]2[C@H](CC[C@@H]3[C@@H]2CC[C@]2(C)[C@@H](C(=O)Cn4cnn(-c5cccc(F)n5)c4=O)CC[C@@H]32)C1 [Compound 20] | 320 mL/min/kg |  | 8.40% | 178 µL/min/mg | 724% | 28 mL/min/kg |  | 52.3% | 20 µL/min/mg | 966% | 7.8 min | 368 nM | 70.7 min | 360 nM
C[C@@]1(O)CC[C@H]2[C@H](CC[C@@H]3[C@@H]2CC[C@]2(C)[C@@H](C(=O)Cn4cnn(-c5ccnc(F)c5)c4=O)CC[C@@H]32)C1 [Compound 21] | 69 mL/min/kg |  | 31.9% | 38 µL/min/mg |  | 23 mL/min/kg |  | 47.9% | 26 µL/min/mg |  | 36.3 min | 153 nM | 53.3 min | 116 nM
C[C@@]1(O)CC[C@H]2[C@H](CC[C@@H]3[C@@H]2CC[C@]2(C)[C@@H](C(=O)Cn4cnn(-c5cccc(N)c5)c4=O)CC[C@@H]32)C1 [Compound 22] | 146 mL/min/kg |  | 8.9% | 81 µL/min/mg | 786% | 320 mL/min/kg |  | 8.6% | 178 µL/min/mg |  | 17.1 min | 349 nM | 7.8 min | 213 nM
C[C@@]1(O)CC[C@H]2[C@H](CC[C@@H]3[C@@H]2CC[C@]2(C)[C@@H](C(=O)Cn4cnn(-c5cncc(F)c5)c4=O)CC[C@@H]32)C1 [Compound 23] | 72 mL/min/kg |  | 31.7% | 40 µL/min/mg | 618% | 21 mL/min/kg |  | 53.4% | 23 µL/min/mg | 601% | 34.7 min | 145 nM | 60.3 min | 150 nM
C[C@@]1(O)CC[C@H]2[C@H](CC[C@@H]3[C@@H]2CC[C@]2(C)[C@@H](C(=O)Cn4cnn(-c5cc(F)ccc5F)c4=O)CC[C@@H]32)C1 [Compound 24] | 118 mL/min/kg |  | 14.7% | 66 µL/min/mg | 347% | 17 mL/min/kg |  | 56.1% | 19 µL/min/mg | 743% | 21.1 min | 340 nM | 71.4 min | 79 nM
